Experimental data published in patent publication US20180099967A1, “FUSED TRICYCLIC HETEROCYCLIC COMPOUNDS AS HIV INTEGRASE INHIBITORS” (MERCK SHARP & DOHME CORP., priority 2015, published 2018).
Where two headings read alike, the source gives them in different places.

Tested on: HIV-1
Assay: microbe, parasite or virus in culture
Assay type: cell-based, HIV-1 (H9IIIB or NL4-3 virus)
Procedure: HIV-1 replication was monitored using MT4-gag-GFP clone D3 (hereafter designate MT4-GFP), which are MT-4 cells modified to harbor a GFP reporter gene, the expression of which is dependent on the HIV-1 expressed proteins tat and rev. Productive infection of an MT4-GFP cell with HIV-1 results in GFP expression approximately 24 h post-infection.
MT4-GFP cells were maintained at 37° C./5% CO2/90% relative humidity in RPMI 1640 supplemented with 10% fetal bovine serum, 100 U/ml penicillin/streptomycin, and 400 μg/ml G418 to maintain the reporter gene. For infections, MT4-GFP cells were placed in the same medium lacking G418 and infected overnight with H9IIIB or NL4-3 virus at an approximate multiplicity of infection of 0.01 in the same incubation conditions. Cells were then washed and resuspended in either RPMI 1640 containing no serum at 1.6×10^5 cells/mL (serum free conditions), 10% normal human serum at 1.6×10^5 cells/mL (10% NHS conditions) or in 100% normal human serum at 2×10^5 cells/mL (100% NHS conditions). Compound plates were prepared by dispensing compounds taken up in DMSO into wells of 384 well poly D lysine-coated plates (0.2 μl/well) using an ECHO acoustic dispenser. Each compound was tested in a 10 point serial 3-fold dilution (typical final concentrations: 4.2 μM-0.21 nM). Controls included no inhibitor (DMSO only) and a combination of three antiviral agents (efavirenz, indinavir, and the integrase strand transfer inhibitor L-002254051 at final concentrations of 4 μM each). Cells were added (50 μL/well) to compound plates and the infected cells were maintained at 37° C./5% CO2/90% relative humidity.
Infected cells were quantified at two time points, ˜48 h and ˜72 h post-infection, by counting the number of green cells in each well using an Acumen eX3 scanner. […] Inhibition of R0 is calculated for each well, and IC50 value was determined using non-linear 4-parameter curve fitting.

[1] = Human immunodeficiency virus 1, read-out: WILD TYPE CELL ASSAY Viking IP (0% NHS) (nM)
[2] = Human immunodeficiency virus 1, read-out: WILD TYPE CELL ASSAY Viking IP (100% NHS) (nM)
[3] = read-out: WILD TYPE CELL ASSAY Viking IP (0% NHS)
[4] = read-out: WILD TYPE CELL ASSAY Viking IP (100% NHS)

SMILES	IC50 [1] [nM]	IC50 [2] [nM]	IC50 [3] [nM]	IC50 [4] [nM]
CCN1C[C@@H]2C[C@@H](N3CCC3)c3c(C(=O)NCc4cccc(Cl)c4F)c(=O)c(O)c(n32)C1=O [Compound 40]	5	20	–	–
CCN1C[C@@H]2C[C@@H](NCCCCl)c3c(C(=O)NCc4cccc(Cl)c4F)c(=O)c(O)c(n32)C1=O [Compound 41]	2	22	–	–
CCN1C[C@@H]2C[C@@H](N3CCCC3)c3c(C(=O)NCc4cccc(Cl)c4F)c(=O)c(O)c(n32)C1=O [Compound 42]	5	16	–	–
CCN1C[C@H]2C[C@@H](NS(C)(=O)=O)c3c(C(=O)NCc4ccc(F)cc4F)c(=O)c(O)c(n32)C1=O [Compound 44]	–	–	2	19
CCN1C[C@H]2C[C@H](NS(C)(=O)=O)c3c(C(=O)NCc4ccc(F)cc4F)c(=O)c(O)c(n32)C1=O [Compound 45]	–	–	7	1200
CCN1C[C@@H]2C[C@H](NS(C)(=O)=O)c3c(C(=O)NCc4ccc(F)cc4F)c(=O)c(O)c(n32)C1=O [Compound 46]	11	1040	–	–
CCN1C[C@@H]2C[C@@H](NS(C)(=O)=O)c3c(C(=O)NCc4ccc(F)cc4F)c(=O)c(O)c(n32)C1=O [Compound 47]	1	10	–	–
CCN1C[C@H]2C[C@@H](NS(C)(=O)=O)c3c(C(=O)NCc4ccc(F)c(F)c4F)c(=O)c(O)c(n32)C1=O [Compound 48]	7	23	–	–
CCN1C[C@H]2C[C@H](NS(C)(=O)=O)c3c(C(=O)NCc4ccc(F)c(F)c4F)c(=O)c(O)c(n32)C1=O [Compound 49]	11	12500	–	–
CCN1C[C@H]2C[C@@H](NS(C)(=O)=O)c3c(C(=O)NCc4ccc(F)c(Cl)c4F)c(=O)c(O)c(n32)C1=O [Compound 50]	2	24	–	–
CCN1C[C@H]2C[C@H](NS(C)(=O)=O)c3c(C(=O)NCc4ccc(F)c(Cl)c4F)c(=O)c(O)c(n32)C1=O [Compound 51]	9	17800	–	–
CCN1C[C@H]2C[C@@H](NS(=O)(=O)c3ccc(C)cc3)c3c(C(=O)NCc4ccc(F)cc4F)c(=O)c(O)c(n32)C1=O [Compound 52]	22	310	–	–
CCN1C[C@H]2C[C@H](NS(=O)(=O)c3ccc(C)cc3)c3c(C(=O)NCc4ccc(F)cc4F)c(=O)c(O)c(n32)C1=O [Compound 53]	34	2260	–	–
CCN1C[C@H]2C[C@@H](NC(C)=O)c3c(C(=O)NCc4ccc(F)cc4F)c(=O)c(O)c(n32)C1=O [Compound 55]	8	540	–	–
CCN1C[C@@H]2C[C@@H](NC(C)=O)c3c(C(=O)NCc4ccc(F)cc4F)c(=O)c(O)c(n32)C1=O [Compound 56]	2	14	–	–
CCN1C[C@@H]2C[C@H](NC(C)=O)c3c(C(=O)NCc4ccc(F)cc4F)c(=O)c(O)c(n32)C1=O [Compound 57]	24	135	–	–
CCN1C[C@@H]2CC(NC(=O)C(=O)N(C)C)c3c(C(=O)NCc4ccc(F)cc4F)c(=O)c(O)c(n32)C1=O (stereo partly shown) [Compound 59]	–	–	6	34
